Laboratory results from patent US8012979B2, “Compounds and their uses 707” (AstraZeneca AB, priority 2007, dated 2011).

Molecular target: T1, human active recombinant p38α-6His tagged (Homo sapiens, UniProt Q16539)
T1 construct: 6His
Test: p38 Alpha Enzyme Assay (AlphaScreen, biotinylated-ATF2 substrate)
Type: biochemical
Details: pre-incubated 4 hours at 37° C., reaction initiated with ATP; 0.5 nM enzyme; read-out: p38 pIC50 (converted)
Method: The ability of the compounds of formula (I) to inhibit p38 kinase may be determined using the following biological assay:
Enzyme assays were performed in polypropylene 96 well plates. The following solutions were added to each well; 10 μL of compound dilutions in assay buffer (20 mM HEPES pH 7.4, containing 20 mM magnesium acetate, 0.005% (w/v) Tween-20, 10 mM DTT) containing 1% (v/v) DMSO or assay buffer containing 1% (v/v) DMSO alone, 70 μL of assay buffer containing 36 nM substrate (biotinylated-ATF2) and 10 μL of an appropriate dilution of human active recombinant p38α-6His tagged. Depending on batch of p38, an appropriate dilution was typically a 5 nM solution to give a final enzyme concentration of 0.5 nM. At this stage, background control wells also received 50 μL of AlphaScreen quench buffer (10 mM HEPES pH 7.4 containing 100 mM EDTA, 0.2% (w/v) bovine serum albumin). The plate was covered, pre-incubated for 4 hours at 37° C. and the enzyme reaction initiated by addition of 10 μL 1 mM ATP. After incubation for a further 45 minutes at 37° C., the reaction was stopped by addition of 50 μL quench reagent and 50 μL of the quenched reaction mixture transferred to an opaque, white 96-well plate. Detection reagent, 25 μL of 10 mM HEPES pH 7.4 containing 100 mM EDTA, 0.2% (w/v) bovine serum albumin, 0.3 nM anti phosphoATF2 antibody and 25 μg/mL of ‘AlphaScreen protein A acceptor and donor beads’ (PerkinElmer Inc.), was added to all wells in a darkened room, the plate sealed and left in the dark for at least 5 hours before AlphaScreen readings were taken using a Perkin Elmer EnVision reader. Total, uninhibited activity was determined from assays performed in each assay plate. The mean control in the absence of p38 activity was subtracted from each well. Data were expressed as percent inhibition of total activity using equation 1. Percent Inhibition=100*(1−Test/Control) Eq.1 Where . . . . • Test=p38 kinase activity in the presence of compound • Control=p38 kinase activity in the absence of compound.
pIC50 is defined as the logarithm of the reciprocal of the concentration of compound required for 50% reduction in total p38 kinase activity.

T1 sequence (Q16539 whole entry): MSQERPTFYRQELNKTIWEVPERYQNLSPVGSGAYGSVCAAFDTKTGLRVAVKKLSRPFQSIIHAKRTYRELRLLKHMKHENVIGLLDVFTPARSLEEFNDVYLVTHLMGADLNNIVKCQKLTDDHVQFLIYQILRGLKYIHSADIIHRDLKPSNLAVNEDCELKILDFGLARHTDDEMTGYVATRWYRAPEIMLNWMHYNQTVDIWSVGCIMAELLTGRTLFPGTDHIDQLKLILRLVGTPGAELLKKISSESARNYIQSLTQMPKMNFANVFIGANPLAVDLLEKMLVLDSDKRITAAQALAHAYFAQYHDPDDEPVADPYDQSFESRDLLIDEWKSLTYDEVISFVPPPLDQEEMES

Row | Structure (SMILES) | IC50 [nM]
1 | Cc1ccc(C(=O)NC2CC2)cc1-c1ccc2c(=O)n(Cc3ccc(C4=CCN(C(=O)OC(C)(C)C)CC4)cc3)ccc2c1 [Example 6, 4-{4-[6-(5-Cyclopropylcarbamoyl-2-methyl-phenyl)-1-oxo-1H-isoquinolin-2-ylmethyl]-phenyl}-3,6-dihydro-2H-pyridine-1-carboxylic acid, tert-butyl ester] | 6.31
2 | Cc1ccc(C(=O)NC2CC2)cc1-c1ccc2c(=O)n(CC3CC3)cc(C(=O)N3CCN(C)CC3)c2c1 [Example 39, N-Cyclopropyl-3-(2-(cyclopropylmethyl)-4-(4-methylpiperazine-1-carbonyl)-1-oxo-1,2-dihydroisoquinolin-6-yl)-4-methylbenzamide] | 5.01
3 | Cc1ccc(C(=O)NC2CC2)cc1-c1ccc2c(=O)n(Cc3ccc(C(=O)NCCN(C)C)cc3)ccc2c1 [Example 19, N-Cyclopropyl-3-(2-(4-(2-(dimethylamino)ethylcarbamoyl)benzyl)-1-oxo-1,2-dihydroisoquinolin-6-yl)-4-methylbenzamide] | 1
4 | Cc1ccc(C(=O)NC2CC2)cc1-c1ccc2c(=O)n(CC3CC3)cc(C(=O)NC3CCN(C)CC3)c2c1 [Example 38, 6-(5-(Cyclopropylcarbamoyl)-2-methylphenyl)-2-(cyclopropylmethyl)-N-(1-methylpiperidin-4-yl)-1-oxo-1,2-dihydroisoquinoline-4-carboxamide] | 3.98
5 | COc1ccc(Cn2ccc3cc(-c4cc(C(=O)NC5CC5)ccc4C)ccc3c2=O)cc1 [Example 17, N-Cyclopropyl-3-[2-(4-methoxy-benzyl)-1-oxo-1,2-dihydro-isoquinolin-6-yl]-4-methyl-benzamide] | 1
6 | Cc1ccc(C(=O)NC2CC2)cc1-c1ccc2c(=O)n(Cc3ccc(C(=O)NCCN4CCCC4)cc3)ccc2c1 [Example 22, N-Cyclopropyl-4-methyl-3-(1-oxo-2-(4-(2-(pyrrolidin-1-yl)ethylcarbamoyl)benzyl)-1,2-dihydroisoquinolin-6-yl)benzamide] | 0.794
7 | Cc1ccc(C(=O)NC2CC2)cc1-c1ccc2c(=O)n(Cc3ccccc3)cc(C(=O)NCCN3CCCC3)c2c1 [Example 49, 2-Benzyl-6-{5-[(cyclopropylamino)carbonyl]-2-methylphenyl}-1-oxo-N-(2-pyrrolidin-1-ylethyl)-1,2-dihydroisoquinoline-4-carboxamide] | 3.16
8 | CONC(=O)c1ccc(C)c(-c2ccc3c(=O)n(Cc4ccc(C5=CCNCC5)cc4)ccc3c2)c1 [Example 9, N-Methoxy-4-methyl-3-[1-oxo-2-[4-(1,2,3,6-tetrahydro-pyridin-4-yl)-benzyl]-1,2-dihydro-isoquinolin-6-yl]-benzamide] | 0.2
9 | Cc1ccc(C(=O)NC2CC2)cc1-c1ccc2c(=O)n(Cc3ccc(C4CCNCC4)cc3)ccc2c1 [Example 8, N-Cyclopropyl-4-methyl-3-[1-oxo-2-(4-piperidin-4-yl-benzyl)-1,2-dihydro-isoquinolin-6-yl]-benzamide] | 0.501
10 | Cc1ccc(C(=O)NC2CC2)cc1-c1ccc2c(=O)n(CC3CC3)cc(C(=O)NC3CCNCC3)c2c1 [Example 41, 6-(5-(Cyclopropylcarbamoyl)-2-methylphenyl)-2-(cyclopropylmethyl)-1-oxo-N-(piperidin-4-yl)-1,2-dihydroisoquinoline-4-carboxamide] | 1.58
11 | Cc1ccc(C(=O)NC2CC2)cc1-c1ccc2c(=O)n(Cc3ccc(OCCCN(C)C)nc3)ccc2c1 [Example 29, N-Cyclopropyl-3-(2-((6-(3-(dimethylamino)propoxy)pyridin-3-yl)methyl)-1-oxo-1,2-dihydroisoquinolin-6-yl)-4-methylbenzamide] | 1.58
12 | Cc1ccc(C(=O)NC2CC2)cc1-c1ccc2c(=O)n(Cc3ccncc3)cc(C(=O)N3CCC(N(C)C)CC3)c2c1 [Example 56, N-Cyclopropyl-3-(4-(4-(dimethylamino)piperidine-1-carbonyl)-1-oxo-2-(pyridin-4-ylmethyl)-1,2-dihydroisoquinolin-6-yl)-4-methylbenzamide] | 7.94
13 | Cc1ccc(C(=O)NC2CC2)cc1-c1ccc2c(=O)n(Cc3ccccc3)cc(C(=O)NCCN3CCCCC3)c2c1 [Example 48, 2-Benzyl-6-(5-(cyclopropylcarbamoyl)-2-methylphenyl)-1-oxo-N-(2-(piperidin-1-yl)ethyl)-1,2-dihydroisoquinoline-4-carboxamide] | 2.51
14 | Cc1ccc(C(=O)NC2CC2)cc1-c1ccc2c(=O)n(Cc3cccc(CN(C)C)c3)ccc2c1 [Example 15, N-Cyclopropyl-3-[2-(3-dimethylaminomethyl-benzyl)-1-oxo-1,2-dihydro-isoquinolin-6-yl]-4-methyl-benzamide] | 3.16
15 | C=CCn1ccc2cc(-c3cc(C(=O)NC4CC4)ccc3C)ccc2c1=O [Example 12, 3-(2-Allyl-1-oxo-1,2-dihydro-isoquinolin-6-yl)-N-cyclopropyl-4-methyl-benzamide] | 7.94

Further lines, results first:

Row | IC50 [nM] | Structure (SMILES)
16 | 0.0794 | Cc1c(F)cc(C(=O)NC2CC2)cc1-c1ccc2c(=O)n(Cc3ccc(S(C)(=O)=O)cc3)cc(CN3CCN[C@@H](CO)C3)c2c1 [Example 113, (R)—N-Cyclopropyl-3-fluoro-5-(4-((3-(hydroxymethyl)piperazin-1-yl)methyl)-2-(4-(methylsulfonyl)benzyl)-1-oxo-1,2-dihydroisoquinolin-6-yl)-4-methylbenzamide]
17 | 0.316 | Cc1ccc(C(=O)NC2CC2)cc1-c1ccc2c(=O)n(CC3CC3)cc(CN3CCCN(C)CC3)c2c1 [Example 59, N-Cyclopropyl-3-[2-cyclopropylmethyl-4-(4-methyl-[1,4]diazepan-1-ylmethyl)-1-oxo-1,2-dihydro-isoquinolin-6-yl]-4-methyl-benzamide]
18 | 3.16 | Cc1ccc(C(=O)NC2CC2)cc1-c1ccc2c(=O)n(Cc3cccc(OCCCN(C)C)c3)c(C)cc2c1 [Example 94, N-Cyclopropyl-3-(2-(3-(3-(dimethylamino)propoxy)benzyl)-3-methyl-1-oxo-1,2-dihydroisoquinolin-6-yl)-4-methylbenzamide]
19 | 2.51 | Cc1ccc(C(=O)NC2CC2)cc1-c1ccc2c(=O)n(Cc3ccc(CN(C)C)cc3)cc(C)c2c1 [Example 95, N-Cyclopropyl-3-(2-(4-((dimethylamino)methyl)benzyl)-4-methyl-1-oxo-1,2-dihydroisoquinolin-6-yl)-4-methylbenzamide]
20 | 0.2 | Cc1ccc(C(=O)NC2CC2)cc1-c1ccc2c(=O)n(CC3CC3)cc(CN3CCC(N(C)C)CC3)c2c1 [Example 69, N-Cyclopropyl-3-(2-(cyclopropylmethyl)-4-((4-(dimethylamino)piperidin-1-yl)methyl)-1-oxo-1,2-dihydroisoquinolin-6-yl)-4-methylbenzamide]
21 | 0.316 | CN[C@@H]1CCN(Cc2cn(CC3CC3)c(=O)c3ccc(-c4cc(C(=O)NC5CC5)cc(F)c4C)cc23)C1 [Example 106, (R)—N-Cyclopropyl-3-(2-(cyclopropylmethyl)-4-((3-(methylamino)pyrrolidin-1-yl)methyl)-1-oxo-1,2-dihydroisoquinolin-6-yl)-5-fluoro-4-methylbenzamide]
22 | 0.794 | Cc1c(F)cc(C(=O)NC2CC2)cc1-c1ccc2c(=O)n(CC3CC3)cc(CN3CCN[C@H](C)C3)c2c1 [Example 107, (R)—N-Cyclopropyl-3-(2-(cyclopropylmethyl)-4-((3-methylpiperazin-1-yl)methyl)-1-oxo-1,2-dihydroisoquinolin-6-yl)-5-fluoro-4-methylbenzamide]
23 | 0.1 | Cc1c(F)cc(C(=O)NC2CC2)cc1-c1ccc2c(=O)n(CC3CC3)cc(CN3CCCNCC3)c2c1 [Example 92, 3-(4-((1,4-Diazepan-1-yl)methyl)-2-(cyclopropylmethyl)-1-oxo-1,2-dihydroisoquinolin-6-yl)-N-cyclopropyl-5-fluoro-4-methylbenzamide]
24 | 0.794 | Cc1c(F)cc(C(=O)NC2CC2)cc1-c1ccc2c(=O)n(CC3CC3)cc(CN3CCC[C@@H]3CN)c2c1 [Example 120, (R)-3-(4-((2-(Aminomethyl)pyrrolidin-1-yl)methyl)-2-(cyclopropylmethyl)-1-oxo-1,2-dihydroisoquinolin-6-yl)-N-cyclopropyl-5-fluoro-4-methylbenzamide]
25 | 63.1 | Cc1ccc(C(=O)NC2CC2)cc1-c1ccc2c(=O)n(CC3CCNCC3)ccc2c1 [Example 125, N-Cyclopropyl-4-methyl-3-(1-oxo-2-piperidin-4-ylmethyl-1,2-dihydro-isoquinolin-6-yl)-benzamide]
26 | 0.158 | Cc1c(F)cc(C(=O)NC2CC2)cc1-c1ccc2c(=O)n(CC3CC3)cc(CN3CCN[C@@H](CCO)C3)c2c1 [Example 117, (S)—N-Cyclopropyl-3-(2-(cyclopropylmethyl)-4-((3-(2-hydroxyethyl)piperazin-1-yl)methyl)-1-oxo-1,2-dihydroisoquinolin-6-yl)-5-fluoro-4-methylbenzamide]
